From US10314312B2, “Synergistic antimicrobial composition of zinc pyrithione” (Jubilant Life Sciences Limited, priority 2014, dated 2019)

Legend:
[1] = system: Malassezia furfur (ATCC No. 14521); test: Anti-dandruff efficacy: zone of inhibition by disc diffusion method; format: cell-based; design: key: XX denotes No Activity
Method: (§1) The anti-dandruff efficacy was determined by measuring zone of inhibition using disc diffusion method against Malassezia furfur (ATCC No. 14521). […] The culture plates were incubated at 37° C. for 48 hrs and antifungal activity was evaluated by observing an area of no growth around the disc. An area of no growth around the swatch is known as a zone of inhibition.

[2] = Anti-leaching (biocide release rate) of paint formulations, ASTM-D-6903-07
Method: The biocide (ZPTO) release rate in each test sample is calculated by the following formula: Biocide (ZPTO) release rate=(CZPTO*V*D)/(T*A) wherein, CZPTO=concentration of ZPTO in substitute ocean water (μgL^−1); V=substitute ocean water volume (L); D=hours per day; T=rotation period (hr); A=Area of paint (cm^2).

[3] = combination: ZnP 0.25 w/w % + zinc salt 0.25 w/w %
[4] = zinc salt alone 0.25 w/w %, no ZnP
[5] = zinc salt alone 0.50 w/w %, no ZnP
[6] = zinc salt alone 1.00 w/w %, no ZnP
[7] = zinc salt alone 1.50 w/w %, no ZnP
[8] = zinc salt alone 2.00 w/w %, no ZnP
[9] = combination: ZnP 0.25 w/w % + zinc salt 0.50 w/w %
[10] = combination: ZnP 0.25 w/w % + zinc salt 1.50 w/w %

Method for M. furfur: as §1
The SI is calculated based on F. C. […] SI=Qa/QA+Qb/QB Qa=the concentration of compound A in the blend; Qb=the concentration of compound B in the blend; QA=the concentration of compound A as the only biocide; QB=the concentration of compound B as the only biocide.
If SI (the Synergy Index) is greater than one, antagonism between the products is indicated. If the sum is equal to one, additivity is indicated. But when SI is less than one, synergism is shown, i.e. the lower the SI the greater the synergy shown.

Row | Compound | Zone of Inhibition [1, 3] | Zone of Inhibition [1, 4] | Zone of Inhibition [1, 5] | Zone of Inhibition [1, 6] | Zone of Inhibition [1, 7] | Zone of Inhibition [1, 8] | Zone of Inhibition [1, 9] | Zone of Inhibition [1, 10] | Zone of Inhibition ([1]; combination: ZnP 0.50 w/w % + zinc salt 1.50 w/w %) | Zone of Inhibition ([1]; combination: ZnP 1.00 w/w % + zinc salt 0.25 w/w %) | Zone of Inhibition ([1]; combination: ZnP 1.00 w/w % + zinc salt 0.50 w/w %) | QB = the concentration of compound B as the only biocide (minimum inhibitory concentration) (M. furfur; zinc nicotinate alone) | Zone of Inhibition ([1]; ZnP alone 0.25 w/w %) | Zone of Inhibition ([1]; ZnP alone 0.50 w/w %) | Zone of Inhibition ([1]; ZnP alone 1.00 w/w %) | Zone of Inhibition ([1]; ZnP alone 1.50 w/w %) | Zone of Inhibition ([1]; ZnP alone 2.00 w/w %) | QA = the concentration of compound A as the only biocide (minimum inhibitory concentration) (M. furfur; zinc pyrithione alone) | ZPTO Conc (av.) ([2]; ZPTO concentration in artificial marine water (substitute ocean water), paint formulation) | Rate of Biocide Leaching (CZPTO * V*D)/(T*A) ([2]; paint formulation in substitute ocean water)
1 | NCC(=O)[O-].NCC(=O)[O-].[Zn+2] [Zn-Gly] | 30 mm | XX | XX | XX | XX | XX |  |  |  |  |  |  |  |  |  |  |  |  |  | 
2 | CC(O)C(=O)[O-].CC(O)C(=O)[O-].[Zn+2] (centres unmarked) [Zn-Lac] | 38 mm | XX | XX | XX | XX | XX |  |  |  |  |  |  |  |  |  |  |  |  |  | 
3 | O=C([O-])c1ccccn1.O=C([O-])c1ccccn1.[Zn+2] [Zn-Pic] | 35 mm | XX | XX | XX | XX | XX | 38 mm | 38 mm |  |  |  |  |  |  |  |  |  |  |  | 
4 | [O]=[Zn] [ZnO, zinc oxide] | 30 mm | XX | XX | XX | XX | XX |  | 32 mm |  |  |  |  |  |  |  |  |  |  |  | 
5 | Zinc Nicotinate [Zn-Nic] | 40 mm | XX | XX | XX | XX | 6 mm | 40 mm | 38 mm | 48 mm | 32 mm | 48 mm | 35000 (QB) |  |  |  |  |  |  |  | 
6 | Zinc pyrithione [ZPTO] |  |  |  |  |  |  |  |  |  |  |  |  | 30 mm | 30 mm | 30 mm | 30 mm | 30 mm | 8 | 2145.6 μgL−1 | 171.65 μgcm^2d^−1
